Experiment: Human HepG2 cell viability assay in 384 well format
Type: toxicity, cell-based
Set-up: dose 125 nL, time 70.5 hour; concentration not given beside the values
Settings: HepG2 cells, read-out: Inhibition

Row | SMILES | cytotoxicity at 70.5 h [%]
1 | Cc1ccc2c(c1)N(C(=O)c1cc[nH]c(=O)c1)CC(C)O2 (stereo not given) | -1.21
2 | COc1ccc(CC(C)(O)CNC(=O)Cc2cccs2)cc1 (stereo not given) | 11.8
3 | CCOc1cccc(CSC(C)c2nc(C)no2)n1 (stereo not given) | -3.8
4 | COCc1nc(C(=O)NS(=O)(=O)c2ccc(F)cc2F)cs1 | 0.492
5 | CCS(=O)(=O)NCCNCc1cc(F)ccc1Br | 14.4
6 | O=C(COCc1ccccc1Cl)N1CCCC(n2ccnc2)C1 (stereo not given) | 17.5
7 | O=C(CCN1CCCCO1)NC1CCCN(CC2CCCCC2)C1 (stereo not given) | -8.52
8 | COc1cccc(-c2noc(-c3ccc(NCC(C)O)nc3)n2)c1OC (stereo not given) | -0.152
9 | COC(=O)N1CCCN(C(=O)NC2CCc3ccccc3C2)CC1 (stereo not given) | -1.7
10 | COCCN(Cc1cc(O)nc2ccccc12)C(=O)NC(C)C | -14.7
11 | O=C(N1CCOCC1)N1C[C@@H]2OCCN(C(=O)c3ccco3)[C@@H]2C1 | -1.55
12 | COc1ccc2nnc(CCC(=O)NCc3cccn3C)n2n1 | -2.62
13 | O=C(O)c1ccn(-c2ccccc2NS(=O)(=O)c2cccc(Cl)c2F)n1 | -7.81
14 | Cc1nnc2n1CCN(c1nn3cc(C(C)(C)C)nc3s1)C2 | -7.66
15 | Cc1ccoc1C(=O)NC1CCN(C(=O)Nc2ccccn2)CC1 | -5.66
16 | Cn1c(Cn2cccn2)nnc1C1CCCN(c2ccncc2)C1 (stereo not given) | -8.1
17 | COc1ccc(NC(=O)CSc2ccc3nncn3n2)c(OC)c1 | -15.9
18 | Cc1cc(C)n(CC(C)Nc2nc(C)nc3c2CCNC3)n1 (stereo not given) | -8.55
19 | CN(C)c1ncc(CNC(=O)Nc2ccccc2C(F)(F)F)n1C | 18.7
20 | Cc1nccn1C1CCCN(C(=O)CCCNc2ncccn2)C1 (stereo not given) | -6.43
21 | O=C(NS(=O)(=O)c1ccc2c(c1)OCCO2)c1ccc(Br)cc1F | 5.66
22 | COc1ccc(CN(C(=O)C(C)SC)c2cnn(C)c2)c(OC)c1 (stereo not given) | 1.09
23 | COc1ccc(CNCc2ccnc(N3CCCC3)c2)c(OC)c1 | -1.69

Row | SMILES | cytotoxicity at 70.5 h [%]
24 | Cc1cc(-n2cnnn2)n2ncnc2n1 | 3.71
25 | CN(C(=O)CN1CCc2nn(C)c(=O)cc2C1)c1nccs1 | -4.13
26 | O=C(c1ccc(Cn2cc(Br)cn2)cc1)N1CCCC1 | 30.7
27 | CCc1noc(C)c1C(=O)N1CCCN(Cc2cscn2)CC1 | -10.2
28 | CCCn1ccnc1CN1CCCC(CC)(CO)C1 (stereo not given) | 26.9
29 | O=C(CN1CCN(c2ncccn2)[C@@H]2CS(=O)(=O)C[C@@H]21)N1CCCCC1 | -1.85
30 | CC(C)c1nc(C(=O)N2CCCC(n3cncn3)C2)c[nH]1 (stereo not given) | -2.47
31 | COC(=O)c1cccc(S(=O)(=O)Nc2ccc(Cl)c(C(N)=O)c2)c1 | -12.3
32 | COCC(=O)N1CCC2(CCCN(Cc3cc(OC)ccc3F)C2)C1 (stereo not given) | -7.78
33 | Cc1cc(C)nc(NC2CCCN(CCCc3ccccc3)C2)n1 (stereo not given) | 54.5
34 | O=C(C1CCC1)N1C[C@@H]2CC[C@H](C1)N(S(=O)(=O)c1cccnc1)C2 | -5.86
35 | Cc1nn(C)c2c(N3CCN(C(=O)C4CCCO4)CC3)ncnc12 (stereo not given) | 1.72
36 | O=C(Nc1ccc2c(c1)OCO2)N1CCCC1c1ccco1 (stereo not given) | -4.29
37 | CCCOc1ccc(C(=O)N2C[C@@H](CN3CCCC3)[C@@H](CO)C2)cc1Cl | 1.78
38 | Clc1snnc1CN1CCCCC1Cn1cccn1 (stereo not given) | 26.2
39 | CN(C)CCN1C(=O)C[C@@H]2[C@@H]1CCN2S(=O)(=O)c1ccccc1 | -12.7
40 | CC(C)C(=O)N1CCCC2(CCCN2Cc2cccnc2)C1 (stereo not given) | 1.65
41 | C=C(C)COc1ccccc1CN1CCC(C(=O)NCC)C1 (stereo not given) | -7.01
42 | Cc1cc(NCCNS(=O)(=O)c2cn(C)nc2C)c2ccccc2n1 | 13.5
43 | CCc1ccc(CN2CCC3(CCCN(C(=O)N(C)C)C3)C2)o1 (stereo not given) | -10.4
44 | CC(C)c1noc(C2CCN(C(=O)c3cccs3)CC2)n1 | -5.14
45 | C=C(C)CN1CCN(Cc2cnc(-c3ccc(OC)cc3)nc2)CC1 | 9.18

Reference: ChEMBL document CHEMBL3507680, “University of Dundee, Gates Library screen for HepG2 cell viability”
